Like-named read-outs stand apart in the source and are kept apart here.
Experiments:
[1] = tested on: AmpC/CMY-expressing Enterobacteriaceae (n = 44); test: Broth microdilution MIC, ceftibuten/Compound 2 vs IV comparators; format: cell-based
[2] = tested on: K. pneumoniae UNT-023 (KPC-2); test: MIC vs. septicemia model strain; format: cell-based; details: Klebsiella pneumoniae, read-out: MIC vs. K. pneumoniae UNT-023 (KPC-2)
[3] = tested on: E. coli (UNT-204-1, TEM-1 plus CTX-M-15 producing); format: in vivo, C3H/HeJ mice; details: for Log10 Change in CFU/Sample vs. untreated controls, Day 7, Bladder / Log10 Change in CFU/Sample vs. untreated controls, Day 7, Kidneys / Log10 Change in CFU/Sample vs. untreated controls, Day 7, Urine: SC, BID, 3 days
[4] = Metabolic stability in liver S9; format: in vitro ADME; details: liver S9; Human; test conc. 3 μM
[5] = Metabolic stability in intestinal S9; format: in vitro ADME, cynomolgus monkey; details: cynomolgus, intestinal S9; Monkey; test conc. 3 μM
[6] = Metabolic stability in plasma; format: in vitro ADME; details: Sprague-Dawley, Rat, test conc. 3 μM
[7] = Metabolic stability in plasma; format: in vitro ADME, CD-1 mouse; details: CD-1, plasma; Mouse; test conc. 3 μM
[8] = Single dose plasma pharmacokinetics (fasted and non-fasted); format: in vivo, Cynomolgus monkeys; details: male, Cynomolgus, cynomolgus monkey, iv, 5 mg/kg
[9] = target: T1, SHV-5 (Klebsiella pneumoniae, UniProt P0A3M1); test: Beta-lactamase enzyme inhibition (IC50); format: biochemical
T1 construct: expressed as native untagged proteins; made in house; host or cells: E. coli BL21(DE3)
Experimental: (§1) E. coli BL21(DE3) bacterial cells carrying expression plasmids for the individual beta-lactamases (SHV-5, KPC-2, p99AmpC, CTX-M-15, CMY-2, IMP-1, NDM-1, VIM-2, OXA-1, and OXA 48; expressed as native untagged proteins), were grown in 1 L of Superbroth (Teknova Inc. Hollister, CA) supplemented with 100 μg/mL kanamycin selection and 1×5052 (0.5% glycerol, 0.05% glucose and 0.2% α-lactose) at 35° C. for 18-20 hours. Cells were harvested by centrifugation (4,000×g, 4° C., 20 min) and resuspended in 50 mL of 10 mM HEPES pH 7.5 ( 1/20 of the initial volume). The cells were lysed by sonication (5 pulses of 45 seconds) at 45 W on ice. The lysates were clarified by centrifugation at 10,000×g for 40 minutes at 4° C. […] Active fractions were pooled, concentrated, quantitated by BCA protein determination (Thermo Scientific, Rockford, IL), dialyzed into PBS and frozen at −80° C. in 20% glycerol until use.
(§2) An equal volume of diluted enzyme stock was added, and the plates were incubated at 37° C. for 15 min. […] Absorbance at 486 nm was immediately monitored for 10 min using a Biotek Powerwave XS2 microplate spectrophotometer using the GEN5 software package (Biotek Instruments, Winooski VT). […] Maximum rates of hydrolysis were compared to those in control wells (without inhibitors), and percentages of enzyme inhibition were calculated for each concentration of inhibitor. […]

[10] = Metabolic stability in liver S9; format: in vitro ADME, CD-1 mouse; details: CD-1, liver S9; Mouse; test conc. 3 μM
[11] = target: T2, CTX-M-15 (Escherichia coli, UniProt Q9EXV5); format: biochemical
T2 construct: expressed as native untagged proteins; made in house; host or cells: E. coli BL21(DE3)
Experimental: Assays (200 μl final volume) were performed in PBS in triplicate using 96-well microtiter plates. Cephalothin was used as the substrate for p99 AmpC and CTX-M-15 (50 μM for p99 AmpC; 75 μM for CTX-M-15) and reactions were initiated by addition of enzyme (0.2 nM p99 AmpC; 3 nM CTX-M-15). The decrease in the absorbance at λ260 nm was recorded continuously on a BioTek Powerwave XS2 microplate reader. […] SHV-5 reactions were initiated with 40 nM enzyme, using cefotaxime (100 μM) as the substrate. […] For KPC-2, imipenem (75 μM) was used as the substrate, and reactions initiated with 3 nM enzyme. Reaction progress was monitored by measuring the reduction in absorbance at λ300 nm in continuous fashion. […] Time courses for reaction progress were fit to the following equation, using Prism 7.04 (GraphPad Software, LaJolla, USA) to obtain kobs:
Off-rates for Compound 2 with the various beta-lactamases were determined by jump dilution experiments, performed in triplicate. Enzyme and inhibitor were incubated at room temperature for 10 minutes. Enzyme:inhibitor complexes were then diluted 800-fold into reaction buffer (50 mM Hepes, pH 7.0, 0.1 mg/ml BSA), and 20 μL of the diluted reaction immediately added to 180 μl of 110 μM nitrocefin in a 96-well microtiter plate, and the absorbance at λ 486 nm measured continuously on a BioTek Powerwave XS2 microplate reader. The resulting progress curves were fit to a single exponential, from which koff was derived. Half-life was determined using:
To determine Ki, plots of the inhibitor concentration versus inverse the initial velocity were fit to a linear equation, and the observed Ki corrected for substrate concentration and affinity by: […]

[12] = Metabolic stability in liver S9; format: in vitro ADME, Sprague-Dawley rat; details: Sprague-Dawley, liver S9; Rat; test conc. 3 μM
[13] = Metabolic stability in intestinal S9; format: in vitro ADME; details: intestinal S9; Human; test conc. 3 μM
[14] = Single ascending dose pharmacokinetics, Solutol HS-15:Water (10:90); format: in vivo, Beagle dogs; details: beagle, dog, plasma, iv, 10 mg/kg
Experimental: The dosing formulation for Compound 1 was prepared in Solutol HS-15:Water (10:90 v/v) which provided dosing formulations of Compound 1 as a solution (homogeneous and chemically-stable up to a concentration of 30 mg/mL) and as a emulsion (physically- and chemically-stable at concentrations ranging from 31-100 mg/mL) with dose concentrations ranging from 2-60 mg/mL.

[15] = Single dose plasma pharmacokinetics (fasted and non-fasted); format: in vivo, Sprague-Dawley rats; details: Sprague-Dawley, rat, iv, 5 mg/kg
[16] = Metabolic stability in plasma; format: in vitro ADME; details: cynomolgus, Monkey, test conc. 3 μM
[17] = Metabolic stability in intestinal S9; format: in vitro ADME, beagle dog; details: beagle, intestinal S9; Dog; test conc. 3 μM
[18] = Metabolic stability in intestinal S9; format: in vitro ADME, Sprague-Dawley rat; details: Sprague-Dawley, intestinal S9; Rat; test conc. 3 μM
[19] = Metabolic stability in liver S9; format: in vitro ADME, cynomolgus monkey; details: cynomolgus, liver S9; Monkey; test conc. 3 μM
[20] = tested on: 21 beta-lactamase-producing Enterobacteriaceae strains; test: Neutropenic mouse thigh infection model, dose ranging; format: in vivo, mice
[21] = target: T2, CTX-M-15; test: Beta-lactamase enzyme inhibition (IC50); format: biochemical
Experimental: as §1, §2

[22] = Metabolic stability in intestinal S9; format: in vitro ADME, CD-1 mouse; details: CD-1, intestinal S9; Mouse; test conc. 3 μM

T2 sequence (Q9EXV5 entry or part of it): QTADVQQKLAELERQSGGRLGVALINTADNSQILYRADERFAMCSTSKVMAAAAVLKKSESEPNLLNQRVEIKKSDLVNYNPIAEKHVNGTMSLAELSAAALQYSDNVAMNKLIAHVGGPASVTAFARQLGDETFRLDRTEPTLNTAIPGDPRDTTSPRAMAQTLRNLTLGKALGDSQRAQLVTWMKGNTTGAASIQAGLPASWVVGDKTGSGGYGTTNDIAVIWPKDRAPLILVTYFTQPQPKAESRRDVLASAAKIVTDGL
T1 sequence (P0A3M1 22-286): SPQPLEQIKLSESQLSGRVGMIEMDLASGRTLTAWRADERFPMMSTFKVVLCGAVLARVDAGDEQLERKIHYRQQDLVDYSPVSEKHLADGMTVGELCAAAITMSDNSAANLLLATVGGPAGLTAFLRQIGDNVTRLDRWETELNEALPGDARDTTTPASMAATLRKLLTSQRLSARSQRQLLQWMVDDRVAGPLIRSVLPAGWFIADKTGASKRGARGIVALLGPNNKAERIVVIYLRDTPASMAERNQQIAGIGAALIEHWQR

Nc1nc(/C(=C/CC(=O)O)C(=O)N[C@@H]2C(=O)N3C(C(=O)O)=CCS[C@H]23)cs1 [Ceftibuten, ceftibuten, reference compound]
Number of strains at MIC value 0.5 mg/L ([1]; AmpC/CMY-expressing (n = 44)): 0 | Number of strains at MIC value 1 mg/L ([1]; AmpC/CMY-expressing (n = 44)): 1 | Number of strains at MIC value 2 mg/L ([1]; AmpC/CMY-expressing (n = 44)): 5 | Number of strains at MIC value 4 mg/L ([1]; AmpC/CMY-expressing (n = 44)): 3 | Number of strains at MIC value 8 mg/L ([1]; AmpC/CMY-expressing (n = 44)): 7 | Number of strains at MIC value 16 mg/L ([1]; AmpC/CMY-expressing (n = 44)): 7 | Number of strains at MIC value […] ([1]; AmpC/CMY-expressing (n = 44)): 0 | Number of strains at MIC value ≤0.06 mg/L ([1]; AmpC/CMY-expressing (n = 44)): 1 | Number of strains at MIC value ≥32 mg/L ([1]; AmpC/CMY-expressing (n = 44)): 20 | MIC50 ([1]; iv): ≥ 32 µg/mL | MIC90 ([1]; iv): ≥ 32 µg/mL | MIC [2]: > 128 µg/mL | Log10 Change in CFU/Sample vs. untreated controls, Day 7, Bladder ([3]; 3 mg/kg): −0.03 Log10 CFU/Sample | Log10 Change in CFU/Sample vs. untreated controls, Day 7, Kidneys ([3]; 3 mg/kg): −0.44 Log10 CFU/Sample | Log10 Change in CFU/Sample vs. untreated controls, Day 7, Urine ([3]; 3 mg/kg): −1.24 Log10 CFU/Sample | Log10 Change in CFU/Sample vs. untreated controls, Day 7, Bladder ([3]; 10 mg/kg): −1.51 Log10 CFU/Sample | Log10 Change in CFU/Sample vs. untreated controls, Day 7, Kidneys ([3]; 10 mg/kg): −1.55 Log10 CFU/Sample | Log10 Change in CFU/Sample vs. untreated controls, Day 7, Urine ([3]; 10 mg/kg): −0.59 Log10 CFU/Sample | Log10 Change in CFU/Sample vs. untreated controls, Day 7, Bladder ([3]; 30 mg/kg): −2.08 Log10 CFU/Sample | Log10 Change in CFU/Sample vs. untreated controls, Day 7, Kidneys ([3]; 30 mg/kg): −1.57 Log10 CFU/Sample | Log10 Change in CFU/Sample vs. untreated controls, Day 7, Urine ([3]; 30 mg/kg): −2.28 Log10 CFU/Sample | reduction of bacterial load in the kidneys (average) ([3]; 100 mg/kg, SC twice daily for 3 days): 2.11 log10 CFU | Log10 Change in CFU/Sample vs. untreated controls, Day 7, Bladder ([3]; 100 mg/kg): −2.26 Log10 CFU/Sample | Log10 Change in CFU/Sample vs. untreated controls, Day 7, Kidneys ([3]; 100 mg/kg): −2.11 Log10 CFU/Sample | Log10 Change in CFU/Sample vs. untreated controls, Day 7, Urine ([3]; 100 mg/kg): −2.54 Log10 CFU/Sample | Log10 Change in CFU/Sample vs. untreated controls, Day 7, Bladder ([3]; 300 mg/kg): −1.83 Log10 CFU/Sample | Log10 Change in CFU/Sample vs. untreated controls, Day 7, Kidneys ([3]; 300 mg/kg): −2.14 Log10 CFU/Sample | Log10 Change in CFU/Sample vs. untreated controls, Day 7, Urine ([3]; 300 mg/kg): −3.37 Log10 CFU/Sample

CCC(=O)N[C@H]1Cc2cccc(C(=O)O)c2OB1O [Compound 2, (R)-2-hydroxy-3-propionamido-3,4-dihydro-2H-benzo[e][1,2]oxaborinine-8-carboxylic acid]
half-life at 3 μM [4]: > 2 h | half-life at 3 μM [5]: > 2 h | half-life at 3 μM [6]: > 2 h | half-life at 3 μM [7]: > 2 h | AUC(0-inf) [8]: 38400 ng·h/mL | Cmax [8]: 38600 ng/mL | IC50 [9]: 368 nM | half-life at 3 μM [10]: > 2 h | Ki [11]: 10 nM | k−2 [11]: 4.5 ± 0.1 10^−4 s^−1 | t1/2 [11]: 0.433 ± 0.01 h | half-life at 3 μM [12]: > 2 h | half-life at 3 μM [13]: > 2 h | AUC(0-inf) [14]: 39300 ng·h/mL | Cmax [14]: 54500 ng/mL | AUC(0-inf) [15]: 3710 ng·h/mL | Cmax [15]: 7100 ng/mL | half-life at 3 μM [16]: > 2 h | half-life at 3 μM [17]: > 2 h | half-life at 3 μM [18]: > 2 h | half-life at 3 μM [19]: > 2 h | rescue of ceftibuten activity ([20]; ceftibuten 300 mg q8h human-simulated regimen with Compound 2 q8h): rescued ceftibuten activity in all 21 beta-lactamase-expressing strains | Compound 2 median exposure at which net bacterial stasis was achieved ([20]; ceftibuten 300 mg q8h human-simulated regimen, interquartile range 3.06-18.56): 8.98 mg·h/L | IC50 [21]: 18 nM | half-life at 3 μM [22]: > 2 h

— US12544395B2, “Combination compositions comprising a beta-lactamase inhibitor and uses thereof” (priority 2018, dated 2026)
